Experimental data from US20260137819A1 (Radionetics Oncology, Inc., priority 2022, published 2026).
pEC50: −log10 of the molar value. Starred links: 1 amine or outer side, 2 acyl side, 3 side chain; linkers in the order of their positions; H or OH if unused. Non-standard residues stand in square brackets, D forms with d. Residues, ends and D or L forms follow the SMILES beside them. Groups on a side chain read outwards from the residue. *: point of attachment. X1 = COc1cc2c(cc1-c1cccc(N*)c1)-c1c(c(C(=O)N3CCOCC3(C)C)nn1-c1cc(Cl)cc(Cl)c1)CO2; DOTA = O=C(O)CN1CCN(CC(=O)O)CCN(CC(=O)*)CCN(CC(=O)O)CC1; Suc = O=C(CCC(=O)[*:2])[*:1]; Sar = CNCC(=O)O

Target: T1, human follicle-stimulating hormone receptor (FSHR) (Homo sapiens, UniProt P23945)
T1 construct: host or cells: CHO-K1
T1 sequence (P23945 18-695): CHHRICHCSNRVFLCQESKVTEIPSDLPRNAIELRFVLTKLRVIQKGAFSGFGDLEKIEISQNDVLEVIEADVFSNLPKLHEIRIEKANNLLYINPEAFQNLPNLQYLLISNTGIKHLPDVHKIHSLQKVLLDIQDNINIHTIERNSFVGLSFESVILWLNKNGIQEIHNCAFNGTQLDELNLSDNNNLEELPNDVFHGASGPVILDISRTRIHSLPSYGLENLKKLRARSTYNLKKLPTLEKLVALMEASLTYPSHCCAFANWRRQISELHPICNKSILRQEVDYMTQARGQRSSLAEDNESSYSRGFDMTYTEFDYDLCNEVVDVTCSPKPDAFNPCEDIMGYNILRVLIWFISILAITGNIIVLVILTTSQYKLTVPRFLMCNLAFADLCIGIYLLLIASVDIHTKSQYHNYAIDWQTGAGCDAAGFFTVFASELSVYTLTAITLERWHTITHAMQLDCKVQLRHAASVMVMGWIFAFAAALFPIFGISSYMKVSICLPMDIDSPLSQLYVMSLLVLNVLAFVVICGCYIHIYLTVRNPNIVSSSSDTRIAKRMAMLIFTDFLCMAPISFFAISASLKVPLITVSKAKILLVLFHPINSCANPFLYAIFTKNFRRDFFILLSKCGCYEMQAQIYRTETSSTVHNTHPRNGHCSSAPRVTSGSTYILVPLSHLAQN
Experiment: Measurement of agonist cAMP production by activation of human FSHR
Assay type: cell-based
Conditions: CHO-K1 human FSHR cells, 30 minutes at 37° C., HTRF cAMP kit; read-out: hFSHR Agonist cAMP EC50
Procedure, shortened: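 cAMP output was measured by HTRF after 30 min at 37 °C agonist exposure (0–10,000 nM final) in stably FSHR-transfected CHO-K1 cells. Lysate cAMP was read off a standard curve and fitted to obtain half-maximal EC50.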

Structure (SMILES)	pEC50
COc1cc2c(cc1-c1cccc(NC(=O)CCC(=O)N[C@H](C)C(=O)N[C@H](CCC(=O)O)C(=O)N[C@H](CCC(=O)O)C(=O)N[C@H](CCC(=O)O)C(=O)N[C@H](CCC(=O)O)C(=O)N[C@H](CCCCNC(=O)CN3CCN(CC(=O)O)CCN(CC(=O)O)CCN(CC(=O)O)CC3)C(=O)N[C@H](C)C(N)=O)c1)-c1c(c(C(=O)N3CCOCC3(C)C)nn1-c1cc(Cl)cc(Cl)c1)CO2 [Compound 92, 2,2′,2″-(10-((8R,11R,14R,17R,20R,23R)-8-(((R)-1-amino-1-oxopropan-2yl)carbamoyl)-11,14,17,20-tetrakis(2-carboxyethyl)-28-((3-(1-(3,5-dichlorophenyl)-3-(3,3-dimethylmorpholine-4-carbonyl)-7-methoxy-1,4-dihydrochromeno[4,3-c]pyrazol-8-yl)phenyl)amino)-23-methyl-2,10,13,16,19,22,25,28-octaoxo-3,9,12,15,18,21,24-heptaazaoctacosyl)-1,4,7,10-tetraazacyclododecane-1,4,7-triyl)triacetic acid] ({X1-Suc}-[dA][dE][dE][dE][dE][dK](DOTA)[dA]-NH2)	7.00 to 8.00
COc1cc2c(cc1-c1ccc(NC(=O)NCCOCCOCCOCCOCCNC(=O)CN3CCN(CC(=O)O)CCN(CC(=O)O)CCN(CC(=O)O)CC3)cc1)-c1c(c(C(=O)N(C)C(C)(C)C)nn1-c1cc(Cl)cc(Cl)c1)CO2 [Compound 6, 2,2′,2″-(10-(1-((4-(3-(tert-butyl(methyl)carbamoyl)-1-(3,5-dichlorophenyl)-7-methoxy-1,4-dihydrochromeno|4,3-clpyrazol-8-yl)phenyl)amino)-1,18-dioxo-5,8,11,14-tetraoxa-2,17-diazanonadecan-19-yl)-1,4,7,10-tetraazacyclododecane-1,4,7-triyl)triacetic acid]	> 8.00
COc1cc2c(cc1-c1cccc(NC(=O)[C@H](CS(=O)(=O)O)NC(=O)CN3CCN(CC(=O)O)CCN(CC(=O)O)CCN(CC(=O)O)CC3)c1)-c1c(c(C(=O)N3CCOCC3(C)C)nn1-c1cc(Cl)cc(Cl)c1)CO2 [Compound 33, (R)-2,2′,2″-(10-(2-((1-((3-(1-(3,5-dichlorophenyl)-3-(3,3-dimethylmorpholine-4-carbonyl)-7-methoxy-1,4-dihydrochromeno|4,3-c|pyrazol-8-yl)phenyl)amino)-1-oxo-3-sulfopropan-2-yl)amino)-2-oxoethyl)-1,4,7,10-tetraazacyclododecane-1,4,7-triyl)triacetic acid]	< 7.00
COc1cc2c(cc1-c1cccc(NC(=O)CCC(=O)N(CC(=O)O)C3CCN(C(=O)CN4CCN(CC(=O)O)CCN(CC(=O)O)CCN(CC(=O)O)CC4)CC3)c1)-c1c(c(C(=O)N3CCOCC3(C)C)nn1-c1cc(Cl)cc(Cl)c1)CO2 [Compound 46, 2,2′,2″-(10-(2-(4-(N-(carboxymethyl)-4-((3-(1-(3,5-dichlorophenyl)-3-(3,3dimethylmorpholine-4-carbonyl)-7-methoxy-1,4-dihydrochromeno|4,3-clpyrazol-8-yl)phenyl)amino)-4-oxobutanamido)piperidin-1-yl)-2-oxoethyl)-1,4,7,10-tetraazacyclododecane-1,4,7-trivl)triacetic acid]	7.00 to 8.00
COc1cc2c(cc1-c1cccc(NC(=O)NCCNc3c(NCCNC(=O)CN4CCN(CC(=O)O)CCN(CC(=O)O)CCN(CC(=O)O)CC4)c(=O)c3=O)c1)-c1c(c(C(=O)N3CCOCC3(C)C)nn1-c1cc(Cl)cc(Cl)c1)CO2 [Compound 24A, indium (III) 2,2′,2″-(10-(2-((2-((2-((2-(3-(3-(1-(3,5-dichlorophenyl)-3-(3,3-dimethylmorpholine-4-carbonyl)-7-methoxy-1,4-dihydrochromeno[4,3-c]pyrazol-8-yl)phenyl)ureido)ethyl)amino)-3,4-dioxocyclobut-1-en-1-yl)amino)ethyl)amino)-2-oxoethyl)-1,4,7,10-tetraazacyclododecane-1,4,7-triyl)triacetate]	> 8.00
COc1cc2c(cc1-c1cncc(NC(=O)CN(C)C(=O)CN(C)C(=O)CN(C)C(=O)CN(C)C(=O)CN(C)C(=O)CCNC(=O)CN3CCN(CC(=O)O)CCN(CC(=O)O)CCN(CC(=O)O)CC3)c1)-c1c(c(C(=O)N3CCOCC3(C)C)nn1-c1cc(F)cc(F)c1)CO2 [Compound 59]	< 7.00
COc1cc2c(cc1-c1cccc(NC(=O)CCC(=O)N(C)CC(=O)N(C)CC(=O)N(C)CC(=O)N[C@H](CCCCNC(=O)CN3CCN(CC(=O)O)CCN(CC(=O)O)CCN(CC(=O)O)CC3)C(=O)N[C@H](CCC(=O)O)C(=O)N[C@H](Cc3ccc(O)cc3)C(=O)N[C@H](CCCCN)C(=O)N[C@H](CCC(=O)O)C(=O)N[C@H](CCC(=O)O)C(=O)N[C@H](CCC(=O)O)C(=O)N[C@H](CCC(=O)O)C(=O)N[C@H](CCCCN)C(N)=O)c1)-c1c(c(C(=O)N3CCOCC3(C)C)nn1-c1cc(Cl)cc(Cl)c1)CO2 [Compound 98] ({X1-Suc}-[Sar][Sar][Sar][dK](DOTA)[dE][dY][dK][dE][dE][dE][dE][dK]-NH2)	7.00 to 8.00
COc1cc2c(cc1-c1cncc(NC(=O)CCNC(=O)[C@@H](CC(=O)O)NC(=O)[C@@H](CC(=O)O)NC(=O)CN3CCN(CC(=O)O)CCN(CC(=O)O)CCN(CC(=O)O)CC3)c1)-c1c(c(C(=O)N3CCOCC3(C)C)nn1-c1cc(Cl)cc(Cl)c1)CO2 [Compound 94]	7.00 to 8.00
COc1cc2c(cc1-c1cccc(/C(C)=N/OCCNC(=O)CN3CCN(C(=O)CN4CCN(CC(=O)O)CCN(CC(=O)O)CCN(CC(=O)O)CC4)CC3)c1)-c1c(c(C(=O)N3CCOCC3(C)C)nn1-c1cc(Cl)cc(Cl)c1)CO2 [Compound 40]	7.00 to 8.00
COc1cc2c(cc1-c1cncc(NC(=O)CNC(=O)CC[C@@H](NC(=O)CN3CCN(CC(=O)O)CCN(CC(=O)O)CCN(CC(=O)O)CC3)C(=O)O)c1)-c1c(c(C(=O)N3CCOCC3(C)C)nn1-c1cc(F)cc(F)c1)CO2 [Compound 61, (R)-2,2′,2″-(10-(2-((1-carboxy-4-((2-((5-(1-(3,5-difluorophenyl)-3-(3,3-dimethylmorpholine-4-carbonyl)-7-methoxy-1,4-dihydrochromeno[4,3-c]pyrazol-8-yl)pyridin-3-yl)amino)-2-oxoethyl)amino)-4-oxobutyl)amino)-2-oxoethyl)-1,4,7,10-tetraazacyclododecane-1,4,7-triyl)triacetic acid]	7.00 to 8.00
COc1cc2c(cc1-c1cncc(NC(=O)CCOCCOCCNC(=O)CN3CCN(CC(=O)O)CCN(CC(=O)O)CCN(CC(=O)O)CC3)c1)-c1c(c(C(=O)N3CCOCC3(C)C)nn1-c1cc(Cl)cc(Cl)c1)CO2 [Compound 52, 2,2′,2″-(10-(2-((2-(2-(3-((5-(1-(3,5-dichlorophenyl)-3-(3,3-dimethylmorpholine-4-carbonyl)-7-methoxy-1,4-dihydrochromeno[4,3-c]pyrazol-8-yl)pyridin-3-yl)amino)-3-oxopropoxy)ethoxy)ethyl)amino)-2-oxoethyl)-1,4,7,10-tetraazacyclododecane-1,4,7-triyl)triacetic acid--2,2,2-trifluoroacetic acid (1/1)]	> 8.00
COc1cc2c(cc1-c1cccc(NC(=O)CCC(=O)NCCCC[C@@H](NC(=O)[C@@H](C)NC(=O)[C@@H](C)NC(=O)[C@@H](CC(N)=O)NC(=O)[C@@H](CC(=O)O)NC(=O)[C@@H](CCCNC(=N)N)NC(=O)[C@@H](C)NC(=O)CN3CCN(CC(=O)O)CCN(CC(=O)O)CCN(CC(=O)O)CC3)C(N)=O)c1)-c1c(c(C(=O)N3CCOCC3(C)C)nn1-c1cc(Cl)cc(Cl)c1)CO2 [Compound 91] ({DOTA}-[dA][dR][dD][dN][dA][dA][dK]([Suc-X1])-NH2)	7.00 to 8.00
COc1cc2c(cc1-c1cccc(NC(=O)CN3CCN(CC(=O)O)CCN(CC(=O)O)CCN(CC(=O)O)CC3)c1)-c1c(c(C(=O)N3CCOCC3(C)C)nn1-c1cc(Cl)cc(Cl)c1)CO2 [Compound 29, 2,2′,2″-(10-(2-((3-(1-(3,5-dichlorophenyl)-3-(3,3-dimethylmorpholine-4-carbonyl)-7-methoxy-1,4-dihydrochromeno|4,3-c|pyrazol-8-yl)phenyl)amino)-2-oxoethyl)-1,4,7,10-tetraazacyclododecane-1,4,7-triyl)triacetic acid]	< 7.00
COc1cc2c(cc1-c1cncc(NC(=O)CCNC(=O)[C@@H](CC(=O)O)NC(=O)[C@@H](CC(=O)O)NC(=O)CC[C@@H](NC(=O)CN3CCN(CC(=O)O)CCN(CC(=O)O)CCN(CC(=O)O)CC3)C(=O)O)c1)-c1c(c(C(=O)N3CCOCC3(C)C)nn1-c1cc(Cl)cc(Cl)c1)CO2 [Compound 93]	7.00 to 8.00
COc1cc2c(cc1-c1cccc(NC(=O)NCCNc3c(NCCNC(=O)CN4CCN(CC(=O)O)CCN(CC(=O)O)CCN(CC(=O)O)CC4)c(=O)c3=O)c1)-c1c(c(C(=O)N3CCOCC3(C)C)nn1-c1cc(Cl)cc(Cl)c1)CO2 [Compound 24, 2,2′,2″-(10-(2-((2-((2-((2-(3-(3-(1-(3,5-dichlorophenyl)-3-(3,3-dimethylmorpholine-4-carbonyl)-7-methoxy-1,4-dihydrochromeno|4,3-c|pyrazol-8-yl)phenyl)ureido)ethyl)amino)-3,4-dioxocyclobut-1-en-1-yl)amino)ethyl)amino)-2-oxoethyl)-1,4,7,10-tetraazacyclododecane-1,4,7-triyl)triacetic acid]	7.00 to 8.00
